The values below come from ChEMBL document CHEMBL5465560, “Selectivity Literature for EUbOPEN Chemogenomic Library” (2024).

Experiment [1] has as its target Tyrosine-protein kinase Blk (Homo sapiens) (UniProt P51451). Kind of experiment: Selectivity interaction (KinomeScan (DiscoverX)) EUB0000229b BLK. Particulars: at 10 µM.
Experiment [2] concerns the target T1, Ephrin type-B receptor 3 (Homo sapiens) (UniProt P54753).
T1 sequence (whole entry): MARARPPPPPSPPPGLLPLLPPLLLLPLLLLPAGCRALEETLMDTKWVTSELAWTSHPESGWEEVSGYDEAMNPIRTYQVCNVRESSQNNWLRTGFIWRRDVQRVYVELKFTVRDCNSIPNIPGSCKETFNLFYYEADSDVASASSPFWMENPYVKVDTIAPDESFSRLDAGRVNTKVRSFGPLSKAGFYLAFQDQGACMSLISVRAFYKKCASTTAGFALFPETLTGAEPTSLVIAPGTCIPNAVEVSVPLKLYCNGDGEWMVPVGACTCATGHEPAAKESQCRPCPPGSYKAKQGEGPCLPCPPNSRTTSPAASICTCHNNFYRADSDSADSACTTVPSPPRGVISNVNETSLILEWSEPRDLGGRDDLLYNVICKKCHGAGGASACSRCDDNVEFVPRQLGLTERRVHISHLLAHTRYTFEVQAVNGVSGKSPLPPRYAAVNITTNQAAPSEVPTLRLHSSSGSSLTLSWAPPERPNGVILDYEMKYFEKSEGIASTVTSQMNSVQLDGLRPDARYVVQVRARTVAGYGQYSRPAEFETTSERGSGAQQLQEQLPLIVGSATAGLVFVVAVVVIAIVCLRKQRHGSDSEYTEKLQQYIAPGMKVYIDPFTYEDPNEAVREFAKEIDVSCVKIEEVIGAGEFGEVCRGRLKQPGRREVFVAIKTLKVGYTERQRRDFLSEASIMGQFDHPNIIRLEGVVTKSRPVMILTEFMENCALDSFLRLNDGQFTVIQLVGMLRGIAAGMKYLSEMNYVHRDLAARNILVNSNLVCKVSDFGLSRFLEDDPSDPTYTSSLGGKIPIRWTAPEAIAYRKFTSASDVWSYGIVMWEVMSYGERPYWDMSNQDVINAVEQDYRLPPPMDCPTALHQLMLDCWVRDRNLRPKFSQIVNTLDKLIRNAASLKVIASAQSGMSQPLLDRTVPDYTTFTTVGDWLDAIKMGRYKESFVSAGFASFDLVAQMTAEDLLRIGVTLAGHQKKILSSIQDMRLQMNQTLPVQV
Put plainly: Selectivity interaction (KinomeScan (DiscoverX)) EUB0000229b EPHB3. As to conditions: at 10 µM.

Experiment [3] concerns the target Nuclear receptor subfamily 1 group I member 2 (Homo sapiens, UniProt O75469). Put plainly: Selectivity interaction (PXR Receptor agonist/antagonist assay: TR-FRET human recombinant ) EUB0000877a NR1I2. (TR-FRET usually uses a lanthanide donor and a delayed reading to cut background.)
The target in experiment [4] is T2, MAP/microtubule affinity-regulating kinase 4 (Homo sapiens) (UniProt Q96L34).
T2 sequence (whole entry): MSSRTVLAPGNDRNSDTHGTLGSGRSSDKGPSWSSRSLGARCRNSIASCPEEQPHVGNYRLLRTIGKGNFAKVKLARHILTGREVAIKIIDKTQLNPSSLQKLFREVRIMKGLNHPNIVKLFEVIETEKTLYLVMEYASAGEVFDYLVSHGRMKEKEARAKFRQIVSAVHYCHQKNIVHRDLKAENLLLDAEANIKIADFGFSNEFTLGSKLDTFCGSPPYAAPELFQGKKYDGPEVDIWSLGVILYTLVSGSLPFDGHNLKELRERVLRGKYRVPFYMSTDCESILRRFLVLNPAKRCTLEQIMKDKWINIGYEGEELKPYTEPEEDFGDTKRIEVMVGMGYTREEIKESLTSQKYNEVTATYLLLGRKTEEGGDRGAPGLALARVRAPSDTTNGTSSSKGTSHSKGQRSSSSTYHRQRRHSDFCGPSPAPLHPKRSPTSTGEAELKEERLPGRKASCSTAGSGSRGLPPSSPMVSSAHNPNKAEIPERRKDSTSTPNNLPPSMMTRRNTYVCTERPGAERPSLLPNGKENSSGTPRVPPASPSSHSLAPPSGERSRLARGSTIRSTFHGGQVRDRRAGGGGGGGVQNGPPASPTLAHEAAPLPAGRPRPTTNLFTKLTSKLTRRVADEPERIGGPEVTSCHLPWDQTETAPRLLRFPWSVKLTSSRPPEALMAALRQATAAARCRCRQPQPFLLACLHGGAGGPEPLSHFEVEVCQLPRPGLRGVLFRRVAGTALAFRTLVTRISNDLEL
As to conditions: at 10 µM.

Experiment [5] addresses T3, cGMP-dependent protein kinase 2 (Homo sapiens) (UniProt Q13237).
T3 sequence (whole entry): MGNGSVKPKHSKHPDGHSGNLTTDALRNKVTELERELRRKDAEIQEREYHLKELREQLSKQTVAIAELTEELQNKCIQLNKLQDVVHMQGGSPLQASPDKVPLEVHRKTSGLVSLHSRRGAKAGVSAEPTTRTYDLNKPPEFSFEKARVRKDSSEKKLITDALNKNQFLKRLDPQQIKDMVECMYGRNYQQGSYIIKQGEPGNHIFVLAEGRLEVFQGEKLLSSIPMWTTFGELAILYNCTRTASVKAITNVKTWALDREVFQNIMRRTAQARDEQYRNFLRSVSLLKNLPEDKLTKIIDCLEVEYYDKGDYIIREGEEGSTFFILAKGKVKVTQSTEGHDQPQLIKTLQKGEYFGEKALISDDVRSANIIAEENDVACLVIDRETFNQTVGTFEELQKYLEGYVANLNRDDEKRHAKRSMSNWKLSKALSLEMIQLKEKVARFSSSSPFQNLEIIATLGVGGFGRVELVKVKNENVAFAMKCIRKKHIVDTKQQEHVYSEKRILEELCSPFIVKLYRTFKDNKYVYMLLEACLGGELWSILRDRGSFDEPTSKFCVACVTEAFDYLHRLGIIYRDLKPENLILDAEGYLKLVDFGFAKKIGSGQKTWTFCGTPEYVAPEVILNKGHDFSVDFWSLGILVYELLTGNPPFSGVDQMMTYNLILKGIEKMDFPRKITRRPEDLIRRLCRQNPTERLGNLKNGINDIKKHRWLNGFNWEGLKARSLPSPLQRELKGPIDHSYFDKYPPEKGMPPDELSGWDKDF
Put plainly: Selectivity interaction (KinomeScan (DiscoverX)) EUB0000695a PRKG2. Particulars: at 100 nM.

In experiment [6] the target is E3 ubiquitin-protein ligase TRIM33 (Homo sapiens) (UniProt Q9UPN9). Put plainly: Selectivity interaction (Human bromodomain panel (DSF assay)) EUB0000233b TRIM33. For orientation: In DSF a fluorescence change marks the thermal transition of the protein.
Sequence of E3 ubiquitin-protein ligase TRIM33 (Homo sapiens) (Q9UPN9 whole entry): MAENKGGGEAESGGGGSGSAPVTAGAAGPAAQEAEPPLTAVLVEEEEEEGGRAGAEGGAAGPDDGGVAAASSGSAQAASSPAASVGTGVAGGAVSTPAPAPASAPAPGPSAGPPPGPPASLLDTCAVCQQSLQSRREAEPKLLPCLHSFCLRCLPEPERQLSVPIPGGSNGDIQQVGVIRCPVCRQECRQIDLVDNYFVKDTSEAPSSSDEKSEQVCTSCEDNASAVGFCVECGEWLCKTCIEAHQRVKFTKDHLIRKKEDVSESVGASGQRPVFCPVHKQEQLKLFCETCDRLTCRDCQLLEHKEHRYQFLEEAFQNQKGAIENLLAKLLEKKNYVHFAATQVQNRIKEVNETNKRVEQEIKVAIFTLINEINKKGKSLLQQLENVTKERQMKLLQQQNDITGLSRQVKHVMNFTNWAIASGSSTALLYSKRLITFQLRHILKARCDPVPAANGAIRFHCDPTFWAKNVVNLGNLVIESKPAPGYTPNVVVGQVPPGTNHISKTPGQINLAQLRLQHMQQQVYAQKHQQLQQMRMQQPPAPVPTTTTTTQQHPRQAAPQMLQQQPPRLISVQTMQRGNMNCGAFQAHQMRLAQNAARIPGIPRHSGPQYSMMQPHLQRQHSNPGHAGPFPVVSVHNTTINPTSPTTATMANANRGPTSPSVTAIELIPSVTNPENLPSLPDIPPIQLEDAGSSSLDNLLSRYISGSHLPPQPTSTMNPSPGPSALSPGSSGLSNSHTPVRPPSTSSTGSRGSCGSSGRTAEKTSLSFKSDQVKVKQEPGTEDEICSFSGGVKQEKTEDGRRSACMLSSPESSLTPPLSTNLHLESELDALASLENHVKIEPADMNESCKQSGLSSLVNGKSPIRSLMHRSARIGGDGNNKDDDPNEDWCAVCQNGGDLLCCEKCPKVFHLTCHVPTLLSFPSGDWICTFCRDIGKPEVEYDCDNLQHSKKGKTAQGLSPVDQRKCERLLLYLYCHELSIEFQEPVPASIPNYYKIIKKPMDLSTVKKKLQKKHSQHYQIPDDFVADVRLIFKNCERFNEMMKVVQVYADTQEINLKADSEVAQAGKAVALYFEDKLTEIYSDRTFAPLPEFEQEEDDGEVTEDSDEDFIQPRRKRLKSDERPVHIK
For experiment [7], the target named is Sodium-dependent serotonin transporter (Homo sapiens, UniProt P31645). Put plainly: Selectivity interaction (Panel of kinases, GPCRs, ion channels and transporters (enzymatic assay)) EUB0000223bCl SLC6A4.
Sequence of Sodium-dependent serotonin transporter (P31645 whole entry, looked up): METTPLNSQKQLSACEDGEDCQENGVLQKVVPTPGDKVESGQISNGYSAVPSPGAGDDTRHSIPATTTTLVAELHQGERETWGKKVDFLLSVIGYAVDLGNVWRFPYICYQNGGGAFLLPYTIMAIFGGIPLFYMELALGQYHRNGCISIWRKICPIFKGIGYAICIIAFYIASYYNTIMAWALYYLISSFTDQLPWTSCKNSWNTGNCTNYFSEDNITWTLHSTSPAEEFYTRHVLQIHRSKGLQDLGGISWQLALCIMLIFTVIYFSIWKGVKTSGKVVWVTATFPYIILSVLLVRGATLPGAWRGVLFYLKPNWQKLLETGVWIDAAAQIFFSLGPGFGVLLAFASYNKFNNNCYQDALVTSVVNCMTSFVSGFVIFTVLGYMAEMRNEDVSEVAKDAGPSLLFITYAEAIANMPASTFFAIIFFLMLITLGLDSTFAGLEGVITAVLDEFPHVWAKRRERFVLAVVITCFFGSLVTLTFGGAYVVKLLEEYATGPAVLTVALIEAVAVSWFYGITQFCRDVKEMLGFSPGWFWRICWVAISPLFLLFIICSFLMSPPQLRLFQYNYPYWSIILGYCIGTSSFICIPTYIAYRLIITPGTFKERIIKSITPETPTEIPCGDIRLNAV
Experiment [8] has as its target Ephrin type-A receptor 7 (Homo sapiens) (UniProt Q15375). Put plainly: Selectivity interaction (KinomeScan (DiscoverX)) EUB0000092b EPHA7. Particulars: at 10 µM.
The target of experiment [9] is Phosphatidylinositol 4,5-bisphosphate 3-kinase catalytic subunit beta isoform (Homo sapiens) (UniProt P42338). Put plainly: Selectivity interaction (KinomeScan (DiscoverX)) EUB0000618a PIK3CB. Particulars: at 10 µM.
Sequence of Phosphatidylinositol 4,5-bisphosphate 3-kinase catalytic subunit beta isoform (Homo sapiens) (P42338 whole entry, looked up, canonical isoform): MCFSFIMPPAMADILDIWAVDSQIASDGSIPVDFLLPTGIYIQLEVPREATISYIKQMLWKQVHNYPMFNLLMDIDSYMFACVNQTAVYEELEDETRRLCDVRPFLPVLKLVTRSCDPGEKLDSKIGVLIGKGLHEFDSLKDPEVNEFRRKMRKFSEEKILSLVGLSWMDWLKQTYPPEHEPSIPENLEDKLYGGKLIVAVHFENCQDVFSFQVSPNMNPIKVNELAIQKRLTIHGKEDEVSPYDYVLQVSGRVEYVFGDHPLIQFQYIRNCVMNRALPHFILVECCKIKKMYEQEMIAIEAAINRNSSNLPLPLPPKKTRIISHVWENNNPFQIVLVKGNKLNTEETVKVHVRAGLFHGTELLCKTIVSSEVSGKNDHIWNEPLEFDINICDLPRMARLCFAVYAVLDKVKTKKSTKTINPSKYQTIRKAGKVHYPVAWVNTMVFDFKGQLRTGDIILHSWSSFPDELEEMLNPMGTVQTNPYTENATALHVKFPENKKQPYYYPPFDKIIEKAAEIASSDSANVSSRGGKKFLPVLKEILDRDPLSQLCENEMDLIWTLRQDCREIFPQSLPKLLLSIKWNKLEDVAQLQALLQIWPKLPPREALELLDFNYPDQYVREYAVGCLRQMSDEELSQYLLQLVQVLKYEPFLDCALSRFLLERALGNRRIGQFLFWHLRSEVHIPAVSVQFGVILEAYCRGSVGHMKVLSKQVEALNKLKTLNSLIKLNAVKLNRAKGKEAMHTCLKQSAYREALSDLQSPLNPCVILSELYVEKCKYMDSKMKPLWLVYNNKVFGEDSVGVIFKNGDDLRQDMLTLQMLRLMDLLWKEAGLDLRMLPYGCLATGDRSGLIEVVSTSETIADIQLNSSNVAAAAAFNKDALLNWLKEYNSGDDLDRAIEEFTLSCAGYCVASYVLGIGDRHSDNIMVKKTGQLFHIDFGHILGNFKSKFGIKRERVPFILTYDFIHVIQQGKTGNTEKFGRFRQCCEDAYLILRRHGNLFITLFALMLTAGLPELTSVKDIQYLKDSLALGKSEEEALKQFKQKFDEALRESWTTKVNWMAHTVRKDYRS

A value given as a limit tells only on which side of the number the result lay.

Sequence of Tyrosine-protein kinase Blk (Homo sapiens) (P51451 2-505 limits assumed): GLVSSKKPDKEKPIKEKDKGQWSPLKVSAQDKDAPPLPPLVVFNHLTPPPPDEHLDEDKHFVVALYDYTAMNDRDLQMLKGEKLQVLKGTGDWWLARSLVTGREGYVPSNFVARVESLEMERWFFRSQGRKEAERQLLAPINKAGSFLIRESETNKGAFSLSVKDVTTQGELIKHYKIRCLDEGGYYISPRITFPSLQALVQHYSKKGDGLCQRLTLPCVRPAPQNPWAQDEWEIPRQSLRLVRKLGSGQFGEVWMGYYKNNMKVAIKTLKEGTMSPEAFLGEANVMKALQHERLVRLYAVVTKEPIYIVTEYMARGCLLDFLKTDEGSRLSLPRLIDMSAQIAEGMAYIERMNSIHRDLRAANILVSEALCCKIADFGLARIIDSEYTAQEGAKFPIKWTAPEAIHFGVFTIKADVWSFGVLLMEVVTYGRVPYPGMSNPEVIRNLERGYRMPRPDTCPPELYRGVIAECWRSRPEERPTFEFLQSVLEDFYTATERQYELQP
Sequence of Ephrin type-A receptor 7 (Homo sapiens) (Q15375 28-998 limits assumed): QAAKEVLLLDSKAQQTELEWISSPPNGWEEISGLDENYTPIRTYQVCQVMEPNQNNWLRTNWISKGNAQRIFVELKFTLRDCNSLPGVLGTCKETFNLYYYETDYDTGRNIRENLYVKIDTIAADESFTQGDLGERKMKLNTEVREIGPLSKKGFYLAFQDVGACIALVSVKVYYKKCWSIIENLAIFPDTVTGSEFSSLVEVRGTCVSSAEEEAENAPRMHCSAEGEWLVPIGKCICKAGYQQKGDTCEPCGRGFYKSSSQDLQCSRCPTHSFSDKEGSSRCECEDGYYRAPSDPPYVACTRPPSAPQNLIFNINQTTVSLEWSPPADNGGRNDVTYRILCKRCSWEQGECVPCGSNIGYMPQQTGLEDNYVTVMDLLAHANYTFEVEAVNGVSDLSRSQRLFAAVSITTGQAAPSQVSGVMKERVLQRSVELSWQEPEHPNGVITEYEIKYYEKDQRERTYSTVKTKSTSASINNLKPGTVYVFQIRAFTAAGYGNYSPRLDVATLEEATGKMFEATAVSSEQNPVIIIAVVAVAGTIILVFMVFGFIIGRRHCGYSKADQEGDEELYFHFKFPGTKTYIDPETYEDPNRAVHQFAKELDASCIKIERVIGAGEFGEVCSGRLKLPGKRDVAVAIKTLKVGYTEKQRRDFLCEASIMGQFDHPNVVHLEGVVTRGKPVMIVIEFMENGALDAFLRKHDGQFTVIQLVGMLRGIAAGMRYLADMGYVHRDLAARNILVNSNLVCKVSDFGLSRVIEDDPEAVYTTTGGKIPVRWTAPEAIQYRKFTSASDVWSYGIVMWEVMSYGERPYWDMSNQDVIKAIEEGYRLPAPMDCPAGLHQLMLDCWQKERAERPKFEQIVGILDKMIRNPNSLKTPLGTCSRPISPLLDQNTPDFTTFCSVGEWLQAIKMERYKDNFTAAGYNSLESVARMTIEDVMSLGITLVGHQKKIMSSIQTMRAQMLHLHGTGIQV
Sequence of Nuclear receptor subfamily 1 group I member 2 (O75469 whole entry): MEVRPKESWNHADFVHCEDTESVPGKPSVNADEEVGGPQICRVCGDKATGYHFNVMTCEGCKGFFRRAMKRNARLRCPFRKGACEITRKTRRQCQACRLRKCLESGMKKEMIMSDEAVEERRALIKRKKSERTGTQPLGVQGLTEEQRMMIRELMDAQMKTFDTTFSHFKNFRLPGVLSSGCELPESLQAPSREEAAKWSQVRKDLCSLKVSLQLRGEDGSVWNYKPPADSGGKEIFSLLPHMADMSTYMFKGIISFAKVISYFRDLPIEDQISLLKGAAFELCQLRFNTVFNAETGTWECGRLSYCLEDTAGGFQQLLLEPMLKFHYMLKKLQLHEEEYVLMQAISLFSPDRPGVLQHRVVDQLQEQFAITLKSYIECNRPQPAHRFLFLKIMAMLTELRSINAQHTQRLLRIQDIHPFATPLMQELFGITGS

As to `COc1cc(N(C)c2ccnc3ccc(C(F)(F)F)cc23)cc(OC)c1OC`, the % binding in [1] amounted to 100%; in experiment [2], 85%.

For `CCC(=O)N1CC[C@H](Nc2ncnc3c2CN(c2cnc(OC)c(C(F)(F)F)c2)CC3)C1` [LENIOLISIB], in [3], the concentration for half-maximal inhibition (IC50) was over 30 µM.

Consider `CCN(CC)CCCCNc1ncc2cc(-c3cc(OC)cc(OC)c3)c(NC(=O)NC(C)(C)C)nc2n1`, for which the % of control in [4] was found to be 100%.

In the case of `Cc1cc(F)c(C(=O)Nc2cccc(-c3nncn3C(C)C)n2)cc1-n1cnc(C2CC2)c1`, in experiment [5], the % of control is 88%.

As for `CN(C)CCCOc1ccc(-c2cc(NCCCn3cccn3)nc(S(C)(=O)=O)n2)cc1`, in experiment [6], the dTM was under 2 K.

As for `COc1cc(C(=O)N2CC[C@@H](O)[C@@H](N)C2)cc2nc(-c3cc4ccccc4n3CC3CC3)n(C)c12`, the pXC50 in experiment [7] was 4.3 M.

On to `CCC(=O)N1CCN(c2ccc(-n3c(=O)ccc4cnc5ccc(-c6cnc7ccccc7c6)cc5c43)cc2C(F)(F)F)CC1`, for which, in [8], the % of control came to 98%.

Molecule `O[C@H]1CC[C@H](Nc2ncc3nc(Nc4c(F)cc(F)cc4F)n([C@H]4CCOC4)c3n2)CC1` returned a % of control in experiment [9] of 100%.

The term IC50 denotes the concentration that gives 50% inhibition.
